One series has as its system DENV-2 16681 strain. In words: DENV-2 antiviral assay (eGFP-labelled virus in Vero cells). Type of series: cell-based, Dengue virus. Conditions: DENV-2 16681 eGFP, MOI 0.5, 3 days. As for the experimental part: The antiviral activity of all the compounds of the invention was tested against DENV-2 16681 strain which was labeled with enhanced green fluorescent protein (eGPF). The culture medium consists of minimal essential medium supplemented with 2% of heat-inactivated fetal calf serum, 0.04% gentamycin (50 mg/mL) and 2 mM of L-glutamine. Vero cells, obtained from ECACC, were suspended in culture medium and 25 μL was added to 384-well plates (2500 cells/well), which already contain the antiviral compounds. Typically, these plates contain a 4-fold serial dilution of 9 dilution steps of the test compound at 200 times the final concentration in 100% DMSO (200 nL). In addition, each compound concentration is tested in quadruplicate (final concentration range: 25 μM-0.00038 μM). Finally, each plate contains wells which are assigned as virus controls (containing cells and virus in the absence of compound), cell controls (containing cells in the absence of virus and compound) and medium controls (containing medium in the absence of cells, virus and compounds). To the wells assigned as medium control, 25 μL of culture medium was added instead of Vero cells. Once the cells were added to the plates, the plates were incubated for 30 minutes at room temperature to allow the cells to distribute evenly within the wells. Next, the plates were incubated in a fully humidified incubator (37° C., 5% CO2) until the next day. Then, DENV-2 strain 16681, labeled with eGFP, was added at a multiplicity of infection (MOI) of 0.5. Therefore, 15 μL of virus suspension was added to all the wells containing test compound and to the wells assigned as virus control. In parallel, 15 μL of culture medium was added to the medium and cell controls. Next, the plates were incubated for 3 days in a fully humidified incubator (37° C., 5% CO2). At the day of the read out, the eGFP fluorescence was measured using an automated fluorescence microscope at 488 nm (blue laser). Using an in-house LIMS system, inhibition dose response curves for each compound were calculated and the half maximal effective concentration (EC50) was determined. Therefore, the percent inhibition (I) for every test concentration is calculated using the following formula: I=100*(ST−SCC)/(SVC−SCC); ST, SCC and SVC are the amount of eGFP signal in the test compound, cell control and virus control wells, respectively. The EC50 represents the concentration of a compound at which the virus replication is inhibited with 50%, as measured by a 50% reduction of the eGFP fluorescent intensity compared to the virus control. The EC50 is calculated using linear interpolation (Table 1).

A further series can be described thus: in vitro. Type of series: cell-based. The following applies: African green monkey, CC50. As for the experimental part:
(§1) In parallel, the toxicity of the compounds was assessed on the same plates. Once the read-out for the eGFP signal was done, 10 μL of resazurin, a cell viability stain, was added to all wells of the 384-well plates. The resazurin assay is based on the reduction of the blue resazurin by NADH, produced by the cells, into the highly fluorescent product, resorufin. The formation of pink fluorescent resorufin is directly related to the number of viable cells in the well. The plates were incubated for an additional 5 hours in a fully humidified incubator (37° C., 5% CO2). Next, the plates were measured on an Infinite reader (Tecan) using an excitation wavelength of 530 nm. The half maximal cytotoxic concentration (CO50) was also determined, defined as the concentration required to reduce the resazurin conversion by 50% compared to that of the cell control wells (Table 1). Finally, the selectivity index (SI) was determined for the compounds, which was calculated as followed: SI=CC50/EC50.

The next series has as its system Vero cells. The series is described as follows: in vitro. The series is classed as cell-based. Conditions: African green monkey. As for the experimental part: as §1
Setting [1] is: Dengue virus, DENV2, Vero, 72 h.

Usually EC50 stands for the midpoint of the concentration-response curve. One may read the CC50 as the concentration giving 50% cytotoxicity.

Bounds are passed on as bounds.

Regarding `COc1cc(NC(C(=O)c2c[nH]c3cc(F)ccc23)c2ccc(F)cc2OC)cc(OCCO)c1` (racemic) [Compound 1, 1-(6-fluoro-1H-indol-3-yl)-2-(4-fluoro-2-methoxyphenyl)-2-((3-(2-hydroxyethoxy)-5-methoxyphenyl)amino)ethanone], in the series on DENV-2 16681 strain (setting [1]), the EC50 was found to be 8 nM. This molecule also came in with a CC50 in “in vitro” of 11000 nM.
Molecule `COc1cc(NC(C(=O)c2c[nH]c3c(C)c(F)ccc23)c2ccc(F)cc2OC)cc(OCCO)c1` (racemic) [Compound 2, 2-(4-fluoro-2-methoxyphenyl)-1-(6-fluoro-7-methyl-1H-indol-3-yl)-2-((3-(2-hydroxyethoxy)-5-methoxyphenyl)amino)ethanone] had a half-maximal effective concentration (EC50) in the series with DENV-2 16681 strain (setting [1]) of 5.4 nM. Further, the CC50 in the series “in vitro” was determined as 7000 nM.
`COc1cc(NC(C(=O)c2c[nH]c3c(C)c(Cl)ccc23)c2ccc(F)cc2OC)cc(OCCO)c1` (racemic) [Compound 3, 1-(6-chloro-7-methyl-1H-indol-3-yl)-2-(4-fluoro-2-methoxyphenyl)-2-((3-(2-hydroxyethoxy)-5-methoxyphenyl)amino)ethanone] came in with an EC50 in the series with DENV-2 16681 strain (setting [1]) of 2.1 nM. In “in vitro”, this molecule came in with a CC50 of 6300 nM.
With `COc1cc(NC(C(=O)c2c[nH]c3c(F)c(F)ccc23)c2ccc(F)cc2OC)cc(OCCO)c1` (racemic) [Compound 5, 1-(6,7-difluoro-1H-indol-3-yl)-2-(4-fluoro-2-methoxyphenyl)-2-((3-(2-hydroxyethoxy)-5-methoxyphenyl)amino)ethanone], a half-maximal effect in the series with DENV-2 16681 strain (setting [1]) (EC50) was put at 8.9 nM. Moreover, it took 5200 nM to reach half-maximal cytotoxicity in “in vitro” (CC50).
In the series with DENV-2 16681 strain (setting [1]), `COc1cc(NC(C(=O)c2c[nH]c3cc(OC)c(F)cc23)c2ccc(F)cc2OC)cc(OCCO)c1` (racemic) [Compound 7, 2-(4-fluoro-2-methoxyphenyl)-1-(5-fluoro-6-methoxy-1H-indol-3-yl)-2-((3-(2-hydroxyethoxy)-5-methoxyphenyl)amino)ethanone] registered an EC50 of 14 nM. Also, the CC50 in “in vitro” is more than 9700 nM.
Molecule `COc1cc(NC(C(=O)c2c[nH]c3c(Cl)c(OC)ccc23)c2ccc(F)cc2OC)cc(OCCO)c1` (racemic) [Compound 8, 1-(7-chloro-6-methoxy-1H-indol-3-yl)-2-(4-fluoro-2-methoxyphenyl)-2-((3-(2-hydroxyethoxy)-5-methoxyphenyl)amino)ethanone] came in with an EC50 in the series on DENV-2 16681 strain (setting [1]) of 3.9 nM. This molecule also came in with a cytotoxic concentration (CC50) in “in vitro” of 6800 nM.
Consider `COc1cc(NC(C(=O)c2c[nH]c3cc(F)c(F)cc23)c2ccc(F)cc2OC)cc(OCCO)c1` (racemic) [Compound 10, 1-(5,6-difluoro-1H-indol-3-yl)-2-(4-fluoro-2-methoxy-phenyl)-2-((3-(2-hydroxyethoxy)-5-methoxyphenyl)amino)ethanone], for which it took 6.8 nM to reach a half-maximal effect with DENV-2 16681 strain (setting [1]) (EC50). In “in vitro”, this molecule showed a half-maximal cytotoxic concentration (CC50) of 9300 nM.
For the molecule `COc1cc(NC(C(=O)c2c[nH]c3c(C)c(OC)ccc23)c2ccc(F)cc2OC)cc(OCCO)c1` (racemic) [Compound 11, 2-(4-fluoro-2-methoxyphenyl)-2-((3-(2-hydroxyethoxy)-5-methoxyphenyl)amino)-1-(6-methoxy-7-methyl-1H-indol-3-yl)ethanone], in the series on DENV-2 16681 strain (setting [1]), the 50% effective concentration (EC50) is 2.4 nM. The CC50 in the series “in vitro” was 10000 nM.
In turn, `COc1cc(NC(C(=O)c2c[nH]c3cc(F)ccc23)c2ccc(F)cc2OC)cc(OCCO)c1` (single isomer, unassigned) [Compound 1B, 1-(6-fluoro-1H-indol-3-yl)-2-(4-fluoro-2-methoxyphenyl)-2-((3-(2-hydroxyethoxy)-5-methoxyphenyl)amino)ethanone] showed an EC50 in the series with DENV-2 16681 strain of 660 nM. The half-maximal cytotoxic concentration (CC50) in “in vitro” came to 12000 nM.
For `COc1cc(NC(C(=O)c2c[nH]c3c(C)c(F)ccc23)c2ccc(F)cc2OC)cc(OCCO)c1` (single isomer, unassigned) [Compound 2A, 2-(4-fluoro-2-methoxyphenyl)-1-(6-fluoro-7-methyl-1H-indol-3-yl)-2-((3-(2-hydroxyethoxy)-5-methoxyphenyl)amino)ethanone], in that order: 660 nM and 5400 nM.
The corresponding values for `COc1cc(NC(C(=O)c2c[nH]c3c(C)c(Cl)ccc23)c2ccc(F)cc2OC)cc(OCCO)c1` (single isomer, unassigned) [Compound 3B, 1-(6-chloro-7-methyl-1H-indol-3-yl)-2-(4-fluoro-2-methoxyphenyl)-2-((3-(2-hydroxyethoxy)-5-methoxyphenyl)amino)ethanone] are 180 nM and 5800 nM.
For `COc1cc(NC(C(=O)c2c[nH]c3cc(Cl)ccc23)c2ccc(F)cc2OC)cc(OCCO)c1` (single isomer, unassigned) [Compound 4B, 1-(6-chloro-1H-indol-3-yl)-2-(4-fluoro-2-methoxyphenyl)-2-((3-(2-hydroxyethoxy)-5-methoxyphenyl)amino)ethanone], in the series on DENV-2 16681 strain, the EC50 came to 380 nM. In “in vitro”, this molecule yielded a CC50 of 7700 nM.
The corresponding values for `COc1cc(NC(C(=O)c2c[nH]c3c(F)c(F)ccc23)c2ccc(F)cc2OC)cc(OCCO)c1` (single isomer, unassigned) [Compound 5A, 1-(6,7-difluoro-1H-indol-3-yl)-2-(4-fluoro-2-methoxyphenyl)-2-((3-(2-hydroxyethoxy)-5-methoxyphenyl)amino)ethanone] are 440 nM and 7400 nM.
In the series with DENV-2 16681 strain, `COc1cc(NC(C(=O)c2c[nH]c3cc(OC)c(C)cc23)c2ccc(F)cc2OC)cc(OCCO)c1` (single isomer, unassigned) [Compound 6B, 2-(4-fluoro-2-methoxyphenyl)-2-((3-(2-hydroxyethoxy)-5-methoxyphenyl)amino)-1-(6-methoxy-5-methyl-1H-indol-3-yl)ethanone] displayed an EC50 of 290 nM. Also, half-maximal cytotoxicity in the series on Vero cells (CC50) was put at 9600 nM.
For the molecule `COc1cc(NC(C(=O)c2c[nH]c3c(Cl)c(OC)ccc23)c2ccc(F)cc2OC)cc(OCCO)c1` (single isomer, unassigned) [Compound 8B, 1-(7-chloro-6-methoxy-1H-indol-3-yl)-2-(4-fluoro-2-methoxyphenyl)-2-((3-(2-hydroxyethoxy)-5-methoxyphenyl)amino)ethanone], the EC50 with DENV-2 16681 strain is 150 nM. The molecule further returned a CC50 in “in vitro” of 9100 nM.
In turn, `COc1cc(NC(C(=O)c2c[nH]c3c(C)cc(F)cc23)c2ccc(F)cc2OC)cc(OCCO)c1` (single isomer, unassigned) [Compound 9A, 2-(4-fluoro-2-methoxyphenyl)-1-(5-fluoro-7-methyl-1H-indol-3-yl)-2-((3-(2-hydroxyethoxy)-5-methoxyphenyl)amino)ethanone] showed an EC50 in the series with DENV-2 16681 strain of 630 nM. The CC50 in “in vitro” is 8800 nM.
Consider `COc1cc(NC(C(=O)c2c[nH]c3cc(F)c(F)cc23)c2ccc(F)cc2OC)cc(OCCO)c1` (single isomer, unassigned) [Compound 10A, 1-(5,6-difluoro-1H-indol-3-yl)-2-(4-fluoro-2-methoxy-phenyl)-2-((3-(2-hydroxyethoxy)-5-methoxyphenyl)amino)ethanone], for which, in the series with DENV-2 16681 strain, the EC50 was 580 nM. Further, half-maximal cytotoxicity in the series “in vitro” (CC50) was put at 11000 nM.
For `COc1cc(NC(C(=O)c2c[nH]c3c(C)c(OC)ccc23)c2ccc(F)cc2OC)cc(OCCO)c1` (single isomer, unassigned) [Compound 11B, 2-(4-fluoro-2-methoxyphenyl)-2-((3-(2-hydroxyethoxy)-5-methoxyphenyl)amino)-1-(6-methoxy-7-methyl-1H-indol-3-yl)ethanone], in that order: 410 nM and 12000 nM.
For `COc1cc(NC(C(=O)c2c[nH]c3c(F)cc(C)cc23)c2ccc(F)cc2OC)cc(OCCO)c1` (single isomer, unassigned) [Compound 12A, 2-(4-fluoro-2-methoxyphenyl)-1-(7-fluoro-5-methyl-1H-indol-3-yl)-2-((3-(2-hydroxyethoxy)-5-methoxyphenyl)amino)ethanone], the EC50 in the series on DENV-2 16681 strain was found to be 930 nM. Further, the midpoint of cytotoxicity in “in vitro”, the CC50, lay at 9200 nM.

The values are drawn from patent US10206902B2, “Mono- or di-substituted indoles as dengue viral replication inhibitors” (priority 2014, dated 2019).
